Active and inactive are the calls of the source.
What was measured:
[1] = Shn3 3'UTR reporter inhibitors, dose response, cell-based, Clone20 osteoblasts, firefly luciferase, cherry-picked (AID 624132); assay type: functional;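 also: firefly luciferase luminescence from reporter carrying the Shn3 3'UTR in osteoblasts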
[2] = HepG2 cell cytotoxicity, dose response, cytotoxicity control for Shn3 inhibitor project, CellTiter-Glo, cherry-picked (AID 624134); assay type: functional, cell-based
[3] = control 3'UTR Renilla luciferase suppression, dose response, counter-screen for Shn3 inhibitor project, cell-based, Clone20-Shn3RL, cherry-picked (AID 624133); assay type: functional
[4] = target: Protein Wnt-3a (Mus musculus, UniProt P27467); test: Wnt3a-driven reporter signaling inhibition, dose response, selectivity assay for Gli-SUFU antagonist project, Wnt-LIGHT cells, luminescence (AID 651570); assay type: functional; settings: read-out: IC50_Mean;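 also: Wnt-LIGHT reporter cells stimulated with conditioned medium from Wnt3a-producing cells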
Sequence of Protein Wnt-3a (P27467 whole entry): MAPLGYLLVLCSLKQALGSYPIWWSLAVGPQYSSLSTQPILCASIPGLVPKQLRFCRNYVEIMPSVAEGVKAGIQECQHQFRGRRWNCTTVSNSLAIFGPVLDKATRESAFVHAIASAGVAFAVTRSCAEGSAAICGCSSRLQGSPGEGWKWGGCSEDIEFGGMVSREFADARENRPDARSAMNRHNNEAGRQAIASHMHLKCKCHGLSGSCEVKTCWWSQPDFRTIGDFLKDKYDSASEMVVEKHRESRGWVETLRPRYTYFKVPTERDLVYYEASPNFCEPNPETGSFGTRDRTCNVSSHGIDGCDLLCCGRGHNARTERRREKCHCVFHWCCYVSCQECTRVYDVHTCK

[5] = target: Melanocortin receptor 4 (Homo sapiens, UniProt P32245); assay type: functional, cell-based;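 also: Cell-based assay with luminescence read-out, confirmatory dose-response testing for agonist activity of biased ligands at MC4R; human U2OS cells with tagged receptor and beta-arrestin; potency of agonists that increase receptor coupling to beta-arrestin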
Sequence of Melanocortin receptor 4 (P32245 whole entry): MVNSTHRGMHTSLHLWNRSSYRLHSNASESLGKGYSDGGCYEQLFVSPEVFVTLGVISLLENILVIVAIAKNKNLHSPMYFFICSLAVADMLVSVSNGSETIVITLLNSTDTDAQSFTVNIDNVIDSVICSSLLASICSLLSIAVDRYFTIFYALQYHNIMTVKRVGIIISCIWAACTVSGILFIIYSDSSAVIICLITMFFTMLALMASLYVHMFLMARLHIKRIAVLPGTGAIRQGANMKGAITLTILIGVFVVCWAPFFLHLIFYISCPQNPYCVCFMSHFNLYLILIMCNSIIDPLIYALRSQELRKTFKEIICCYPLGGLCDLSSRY

[6] = target: Rho-associated protein kinase 1 (Homo sapiens, UniProt Q13464); assay type: functional;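 also: measured within a broad kinome-wide panel profiling many kinases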
[7] = target: Dual specificity protein kinase CLK4 (Homo sapiens, UniProt Q9HAZ1); assay type: functional
Sequence of Dual specificity protein kinase CLK4 (Q9HAZ1 whole entry): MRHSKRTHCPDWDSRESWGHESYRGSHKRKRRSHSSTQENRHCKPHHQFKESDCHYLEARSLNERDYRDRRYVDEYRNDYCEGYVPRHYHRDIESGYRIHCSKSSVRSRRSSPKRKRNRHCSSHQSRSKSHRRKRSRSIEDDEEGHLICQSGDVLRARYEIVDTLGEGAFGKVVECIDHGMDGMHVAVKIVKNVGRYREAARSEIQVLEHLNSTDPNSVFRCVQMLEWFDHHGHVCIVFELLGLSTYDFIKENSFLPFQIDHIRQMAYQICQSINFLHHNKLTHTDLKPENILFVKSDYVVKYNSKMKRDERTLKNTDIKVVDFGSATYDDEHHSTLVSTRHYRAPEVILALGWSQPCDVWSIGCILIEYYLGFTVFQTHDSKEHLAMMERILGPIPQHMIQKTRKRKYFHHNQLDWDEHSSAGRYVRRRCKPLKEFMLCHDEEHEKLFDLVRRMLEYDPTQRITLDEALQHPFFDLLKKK

[8] = target: T1, Aryl hydrocarbon receptor (Homo sapiens, UniProt P35869); settings: Potency;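 also: confirmatory quantitative high-throughput screen measuring activation of the AhR signaling pathway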
T1 sequence (P35869 whole entry): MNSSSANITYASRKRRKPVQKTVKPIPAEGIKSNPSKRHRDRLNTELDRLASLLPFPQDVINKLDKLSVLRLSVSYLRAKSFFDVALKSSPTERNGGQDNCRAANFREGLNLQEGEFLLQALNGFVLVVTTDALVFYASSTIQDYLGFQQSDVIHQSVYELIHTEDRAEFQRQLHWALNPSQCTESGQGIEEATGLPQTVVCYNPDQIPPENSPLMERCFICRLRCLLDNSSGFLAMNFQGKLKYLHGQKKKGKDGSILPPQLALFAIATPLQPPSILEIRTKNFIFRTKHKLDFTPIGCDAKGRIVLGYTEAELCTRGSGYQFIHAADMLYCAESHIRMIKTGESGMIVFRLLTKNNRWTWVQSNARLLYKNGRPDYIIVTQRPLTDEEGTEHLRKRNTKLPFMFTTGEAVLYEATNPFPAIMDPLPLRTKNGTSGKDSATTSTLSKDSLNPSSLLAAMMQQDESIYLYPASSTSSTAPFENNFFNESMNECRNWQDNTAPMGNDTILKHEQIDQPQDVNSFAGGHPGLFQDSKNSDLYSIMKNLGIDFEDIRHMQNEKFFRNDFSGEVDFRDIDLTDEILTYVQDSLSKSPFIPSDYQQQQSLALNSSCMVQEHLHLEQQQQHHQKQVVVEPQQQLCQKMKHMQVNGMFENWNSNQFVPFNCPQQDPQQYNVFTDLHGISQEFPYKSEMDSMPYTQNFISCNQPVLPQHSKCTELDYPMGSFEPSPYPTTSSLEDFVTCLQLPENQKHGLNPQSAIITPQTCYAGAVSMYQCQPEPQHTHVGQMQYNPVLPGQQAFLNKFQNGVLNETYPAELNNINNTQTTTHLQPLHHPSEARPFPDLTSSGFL

[9] = target: Photoreceptor-specific nuclear receptor (Homo sapiens, UniProt Q9Y5X4); assay type: functional, cell-based;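 also: CHO-S cells with Gal4-NCOR and VP16-NR2E3 two-hybrid luciferase reporter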
Sequence of Photoreceptor-specific nuclear receptor (Q9Y5X4 whole entry, the tested form may be a part): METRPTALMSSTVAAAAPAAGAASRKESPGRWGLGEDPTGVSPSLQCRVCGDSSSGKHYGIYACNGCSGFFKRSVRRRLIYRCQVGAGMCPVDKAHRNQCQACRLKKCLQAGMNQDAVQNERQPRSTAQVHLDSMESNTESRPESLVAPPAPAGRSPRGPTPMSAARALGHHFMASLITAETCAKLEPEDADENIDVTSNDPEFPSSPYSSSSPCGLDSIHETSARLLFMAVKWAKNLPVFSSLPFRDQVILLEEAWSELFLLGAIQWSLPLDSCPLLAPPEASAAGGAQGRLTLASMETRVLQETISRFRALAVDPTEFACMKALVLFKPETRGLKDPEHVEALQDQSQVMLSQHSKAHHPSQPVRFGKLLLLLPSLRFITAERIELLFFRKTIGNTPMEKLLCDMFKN

[10] = system: CHO-K1; test: Counterscreen for antagonists of the orexin 1 receptor (OX1R; HCRTR1): Homogeneous time resolved fluorescence (HTRF)-based cell-based dose response assay to identify antagonists of the parental CHO-K1 cell line. [Related pubchem assays (depositor defined):AID434989, AID435008, AID463079, AID485270, AID492963, AID492964, AID492965, AID493232, AID504699, AID504701]; assay type: functional; settings: Cricetulus griseus;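 also: potency for inhibition of ATP-stimulated IP1 production as antagonists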
[11] = Counterscreen for antagonists of the orexin 1 receptor (OX1R; HCRTR1): Fluorescence-based cell-based high throughput dose response assay to identify antagonists of the parental CHO cell line. [Related pubchem assays (depositor defined):AID434989, AID435008, AID463079, AID485270, AID492963, AID492964, AID492965, AID493232, AID504699, AID504701]; assay type: functional
[12] = target: T2, Orexin/Hypocretin receptor type 1 (Homo sapiens, UniProt O43613); test: Homogeneous Time Resolved Fluorescence (HTRF)-based cell-based high throughput dose response assay for antagonists of the orexin 1 receptor (OX1R; HCRTR1). [Related pubchem assays (depositor defined):AID434989, AID435008, AID463079, AID485270, AID492963, AID492964, AID492965, AID493232, AID504717, AID504718]; assay type: functional
T2 sequence (O43613 whole entry): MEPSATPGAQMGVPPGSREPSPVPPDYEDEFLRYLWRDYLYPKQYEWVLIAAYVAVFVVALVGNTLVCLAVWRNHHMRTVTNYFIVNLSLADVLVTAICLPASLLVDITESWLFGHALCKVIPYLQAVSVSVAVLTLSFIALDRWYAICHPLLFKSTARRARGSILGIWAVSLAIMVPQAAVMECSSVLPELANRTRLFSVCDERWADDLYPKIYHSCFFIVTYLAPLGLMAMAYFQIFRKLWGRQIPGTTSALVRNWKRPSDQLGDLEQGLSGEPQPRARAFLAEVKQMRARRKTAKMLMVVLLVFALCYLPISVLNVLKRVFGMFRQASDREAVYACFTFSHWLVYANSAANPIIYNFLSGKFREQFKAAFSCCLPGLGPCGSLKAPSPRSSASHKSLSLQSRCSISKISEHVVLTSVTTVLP

[13] = target: T2, Orexin/Hypocretin receptor type 1; test: Fluorescence-based cell-based high throughput dose response assay for antagonists of the orexin 1 receptor (OX1R; HCRTR1). [Related pubchem assays (depositor defined):AID434989, AID435008, AID463079, AID485270, AID492963, AID492964, AID492965, AID493232, AID504717, AID504718]; assay type: functional
[14] = target: T3, Orexin receptor type 2 (Homo sapiens, UniProt O43614); test: Counterscreen assay for antagonists of the orexin 1 receptor (OX1R; HCRTR1): Fluorescence-based cell-based dose response assay for antagonists of the orexin 2 receptor (OX2R; HCRTR2), run by assay provider.; assay type: functional
T3 sequence (O43614 whole entry): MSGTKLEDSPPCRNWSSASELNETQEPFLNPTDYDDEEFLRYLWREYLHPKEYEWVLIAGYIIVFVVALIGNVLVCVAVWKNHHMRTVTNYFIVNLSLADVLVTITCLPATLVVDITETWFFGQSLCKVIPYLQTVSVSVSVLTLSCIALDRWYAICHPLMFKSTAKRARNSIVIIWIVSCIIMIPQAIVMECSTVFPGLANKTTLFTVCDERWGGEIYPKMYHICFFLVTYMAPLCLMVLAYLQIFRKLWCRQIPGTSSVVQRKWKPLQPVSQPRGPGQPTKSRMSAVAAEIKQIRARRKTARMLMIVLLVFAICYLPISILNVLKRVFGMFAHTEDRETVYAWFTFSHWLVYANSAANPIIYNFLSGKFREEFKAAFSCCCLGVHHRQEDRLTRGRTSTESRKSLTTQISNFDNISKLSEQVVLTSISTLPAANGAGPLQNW

[15] = target: T3, Orexin receptor type 2; test: Counterscreen assay for antagonists of the orexin 1 receptor (OX1R; HCRTR1): Homogeneous Time Resolved Fluorescence (HTRF)-based cell-based dose response assay for antagonists of the orexin 2 receptor (OX2R; HCRTR2), run by assay provider.; assay type: functional
[16] = target: Adenosylmethionine-8-amino-7-oxononanoate aminotransferase (Mycobacterium tuberculosis, UniProt P9WQ81); test: Mycobacterium tuberculosis BioA enzyme inhibitor Measured in Biochemical System Using Plate Reader - 2163-02_Inhibitor_Dose_CherryPick_Activity.; assay type: functional, Mycobacterium tuberculosis UT205
Sequence of Adenosylmethionine-8-amino-7-oxononanoate aminotransferase (P9WQ81 whole entry): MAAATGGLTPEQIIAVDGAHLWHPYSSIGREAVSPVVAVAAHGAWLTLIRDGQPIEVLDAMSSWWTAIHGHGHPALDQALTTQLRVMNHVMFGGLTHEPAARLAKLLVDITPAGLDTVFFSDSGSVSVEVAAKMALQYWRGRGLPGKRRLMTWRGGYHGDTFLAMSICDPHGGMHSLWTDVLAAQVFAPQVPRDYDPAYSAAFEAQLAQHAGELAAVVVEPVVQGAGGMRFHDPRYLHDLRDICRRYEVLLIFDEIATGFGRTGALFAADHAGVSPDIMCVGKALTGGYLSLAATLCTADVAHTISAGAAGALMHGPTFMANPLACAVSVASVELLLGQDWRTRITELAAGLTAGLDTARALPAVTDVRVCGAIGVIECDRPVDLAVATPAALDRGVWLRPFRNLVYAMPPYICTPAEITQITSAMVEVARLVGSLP

[17] = target: Ras and Rab interactor 1/Tyrosine-protein kinase ABL1 (Homo sapiens, UniProt P00519+Q13671); assay type: functional;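 also: biochemical TR-FRET dose-response test measuring inhibition of binding between Rin1 and Abl proteins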
[18] = target: Hexokinase (Trypanosoma brucei, UniProt Q38C41); test: Confirmation assay for inhibitors of Trypanosoma brucei hexokinase 1-Analogue-first series. [Related pubchem assays (depositor defined):AID1430, AID1632, AID2516, AID2560, AID2579, AID2600, AID449725, AID492951]; assay type: functional
[19] = target: Glucose-6-phosphate 1-dehydrogenase (Homo sapiens, UniProt P11413); test: human G6PD enzyme inhibitors, dose response, selectivity assay for P. falciparum G6PD inhibitor project, biochemical, fluorescence (AID 504792); assay type: functional
[20] = system: CHO; test: cytotoxicity in TLR9-MyD88 CHO cells, dose response, cytotoxicity control for TLR9-MyD88 binding inhibitor project, cell-based, luminescence (AID 588339); assay type: functional, hamster; settings: Cricetulus griseus;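 also: CHO cells stably coexpressing TLR9 and MyD88 fusions from primary screen; compound exposure lasted 48 hours before viability readout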
[21] = target: Beta Lactamase (Pseudomonas aeruginosa, UniProt Q932Y6); test: beta-lactamase reporter inhibitor potency, dose response, artefact control for TLR9-MyD88 binding inhibitor project, BLA reporter cells, FRET fluorescence (AID 588341); assay type: cell-based;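 also: cell based assay in CHO-K1 cells stably expressing beta-lactamase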
Sequence of Beta Lactamase (Q932Y6 whole entry): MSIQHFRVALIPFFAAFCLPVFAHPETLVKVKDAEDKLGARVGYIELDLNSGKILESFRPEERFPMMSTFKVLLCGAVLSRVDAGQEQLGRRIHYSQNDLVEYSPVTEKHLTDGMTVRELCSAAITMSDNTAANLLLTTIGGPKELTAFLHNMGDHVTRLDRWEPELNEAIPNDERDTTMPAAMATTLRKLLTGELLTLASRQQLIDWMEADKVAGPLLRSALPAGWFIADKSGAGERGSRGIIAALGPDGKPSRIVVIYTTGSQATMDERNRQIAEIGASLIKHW

[22] = target: Mitochondrial peptide methionine sulfoxide reductase (Bos taurus, UniProt P54149); test: Absorbance-based biochemical high throughput dose response assay for activators of Methionine sulfoxide reductase A (MsrA).; assay type: functional
[23] = AlphaScreen signal interference compounds, dose response, artefact control for ARNT-TACC3 interaction inhibitor project, biochemical, luminescence, cherry-pick (AID 651705); assay type: functional;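 also: AlphaScreen bead proximity signal that flags compounds interfering with the detection technology; potency reflects signal decrease which marks the compound as an assay artifact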
[24] = target: Serine/threonine-protein kinase pim-1 (Homo sapiens, UniProt P11309); assay type: functional
Sequence of Serine/threonine-protein kinase pim-1 (P11309 whole entry, canonical isoform): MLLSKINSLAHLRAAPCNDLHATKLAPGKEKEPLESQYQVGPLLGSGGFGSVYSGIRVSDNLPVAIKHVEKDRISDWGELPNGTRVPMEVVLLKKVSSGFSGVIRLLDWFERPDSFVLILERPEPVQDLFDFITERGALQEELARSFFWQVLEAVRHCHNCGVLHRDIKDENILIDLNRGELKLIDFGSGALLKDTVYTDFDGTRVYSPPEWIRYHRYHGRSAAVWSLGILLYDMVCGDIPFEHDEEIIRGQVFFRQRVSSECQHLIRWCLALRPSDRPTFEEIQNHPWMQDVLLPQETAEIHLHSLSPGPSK

[25] = target: Casein kinase I isoform gamma-1 (Homo sapiens, UniProt Q9HCP0); assay type: functional;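 also: measured as the CSNK1G1 member of a kinome profiling panel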
[26] = target: Cell division cycle 7-related protein kinase (Homo sapiens, UniProt O00311); assay type: functional;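 also: value obtained from a kinome-wide kinase panel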
Sequence of Cell division cycle 7-related protein kinase (O00311 whole entry): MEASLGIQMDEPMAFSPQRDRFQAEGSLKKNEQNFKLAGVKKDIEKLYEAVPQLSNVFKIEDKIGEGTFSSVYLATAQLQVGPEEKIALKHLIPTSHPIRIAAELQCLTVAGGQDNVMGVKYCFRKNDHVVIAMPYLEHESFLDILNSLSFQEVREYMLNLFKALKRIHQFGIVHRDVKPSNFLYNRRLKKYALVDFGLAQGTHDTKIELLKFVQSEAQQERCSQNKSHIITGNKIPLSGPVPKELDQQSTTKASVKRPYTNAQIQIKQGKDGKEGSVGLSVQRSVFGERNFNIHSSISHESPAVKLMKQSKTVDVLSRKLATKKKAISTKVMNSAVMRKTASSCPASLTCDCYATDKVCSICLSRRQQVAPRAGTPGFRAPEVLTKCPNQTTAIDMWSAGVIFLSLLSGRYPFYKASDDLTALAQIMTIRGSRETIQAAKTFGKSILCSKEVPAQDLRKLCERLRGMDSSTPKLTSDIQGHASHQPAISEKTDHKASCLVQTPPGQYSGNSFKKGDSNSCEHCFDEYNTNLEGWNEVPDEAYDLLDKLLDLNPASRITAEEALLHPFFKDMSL

[27] = target: Cyclin-dependent kinase 7 (Homo sapiens, UniProt P50613); assay type: functional;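 also: value comes from a kinome-wide kinase profiling panel in which CDK7 is one member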
[28] = target: Cyclin-dependent kinase 9 (Homo sapiens, UniProt P50750); assay type: functional;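 also: value from the CDK9 entry of a kinome-spanning kinase panel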
Sequence of Cyclin-dependent kinase 9 (P50750 whole entry): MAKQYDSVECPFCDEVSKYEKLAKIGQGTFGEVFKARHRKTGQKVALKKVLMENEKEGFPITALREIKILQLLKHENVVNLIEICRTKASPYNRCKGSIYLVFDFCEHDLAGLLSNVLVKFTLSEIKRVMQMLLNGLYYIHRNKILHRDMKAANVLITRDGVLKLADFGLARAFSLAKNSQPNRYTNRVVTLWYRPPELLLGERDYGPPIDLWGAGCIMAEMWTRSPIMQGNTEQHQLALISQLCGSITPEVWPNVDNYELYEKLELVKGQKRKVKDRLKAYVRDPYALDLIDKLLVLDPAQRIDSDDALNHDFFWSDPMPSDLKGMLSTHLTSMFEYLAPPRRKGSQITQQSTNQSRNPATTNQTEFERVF

[29] = target: T4, Probable nicotinate-nucleotide adenylyltransferase (Staphylococcus aureus (strain N315), UniProt P65502); assay type: functional, Staphylococcus aureus subsp. aureus N315;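 as to IC50 Mean: confirmatory dose-response retesting of NadD inhibitor hits first found in an ultra-high-throughput screen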
T4 sequence (P65502 whole entry): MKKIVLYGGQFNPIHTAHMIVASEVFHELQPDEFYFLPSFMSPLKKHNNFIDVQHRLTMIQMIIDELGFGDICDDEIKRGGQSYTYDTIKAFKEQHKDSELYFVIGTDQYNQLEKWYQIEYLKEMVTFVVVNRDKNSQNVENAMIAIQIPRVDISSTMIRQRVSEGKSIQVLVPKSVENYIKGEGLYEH

[30] = target: T4, Probable nicotinate-nucleotide adenylyltransferase; assay type: functional, Staphylococcus aureus subsp. aureus N315; settings: read-out: IC50_Mean
[31] = target: Potassium voltage-gated channel subfamily KQT member 2 (Rattus norvegicus, UniProt O88943); test: KCNQ2 potassium channel inhibitors, dose response, cell-based, automated electrophysiology, set II, rat KCNQ2 (AID 588637); assay type: functional
Sequence of Potassium voltage-gated channel subfamily KQT member 2 (O88943 whole entry): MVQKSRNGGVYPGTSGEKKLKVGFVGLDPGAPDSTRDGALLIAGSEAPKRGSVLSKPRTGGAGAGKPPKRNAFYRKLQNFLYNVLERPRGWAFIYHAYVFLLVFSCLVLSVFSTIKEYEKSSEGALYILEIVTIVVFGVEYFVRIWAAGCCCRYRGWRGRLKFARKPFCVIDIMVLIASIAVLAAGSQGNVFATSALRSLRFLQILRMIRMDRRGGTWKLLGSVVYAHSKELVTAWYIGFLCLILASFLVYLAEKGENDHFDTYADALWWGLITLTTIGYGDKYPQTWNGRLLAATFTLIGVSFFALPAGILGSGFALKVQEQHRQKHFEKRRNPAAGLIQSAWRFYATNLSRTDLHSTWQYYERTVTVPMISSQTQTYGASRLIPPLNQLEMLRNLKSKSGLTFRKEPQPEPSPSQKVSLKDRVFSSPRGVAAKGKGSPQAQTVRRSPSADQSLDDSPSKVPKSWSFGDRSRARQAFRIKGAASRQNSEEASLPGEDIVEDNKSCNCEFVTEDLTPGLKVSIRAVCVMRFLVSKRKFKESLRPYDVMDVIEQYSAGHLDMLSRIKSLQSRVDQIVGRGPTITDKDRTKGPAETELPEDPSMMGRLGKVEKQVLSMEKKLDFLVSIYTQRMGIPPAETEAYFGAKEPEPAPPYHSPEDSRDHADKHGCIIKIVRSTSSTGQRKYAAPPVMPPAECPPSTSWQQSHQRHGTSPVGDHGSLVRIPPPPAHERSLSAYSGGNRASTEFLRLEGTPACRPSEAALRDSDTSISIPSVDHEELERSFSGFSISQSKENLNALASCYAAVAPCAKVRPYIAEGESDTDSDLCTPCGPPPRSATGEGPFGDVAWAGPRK

[32] = target: T5, Interleukin-8 (Homo sapiens, UniProt P10145); test: Dose Response confirmation of uHTS small molecule hits for cystic fibrosis induced NFkb Inhibitors in a TNFa-induced IL8 counterscreen.; assay type: functional; settings: read-out: IC50_Mean
T5 sequence (P10145 whole entry): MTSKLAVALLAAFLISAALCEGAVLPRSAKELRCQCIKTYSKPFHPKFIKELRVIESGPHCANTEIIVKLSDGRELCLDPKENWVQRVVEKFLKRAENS

[33] = target: T5, Interleukin-8; test: Dose Response confirmation of uHTS small molecule hits for cystic fibrosis induced NFkb Inhibitors in a PAF-induced IL8 counterscreen.; assay type: functional; settings: read-out: IC50_Mean

SMILES: Cc1ccc(S(=O)(=O)N2CCN(C(=O)C3CCN(c4ncnc5sc(C)c(C)c45)CC3)CC2)c(C)c1
- AC50 [1]: 2.12 µM (active)
- AC50 [2]: 46 µM (active)
- AC50 [3]: 1.43 µM (active)
- IC50 [4]: 14.7 µM (active)

SMILES: COc1ccccc1-c1cc(NC(C)=O)c2ncc(-c3ccccc3)n2c1
- EC50 [5]: > 89.2 µM (inactive)

SMILES: Nc1nonc1-n1cc(CO)nn1
- Ki [6]: 39.8 µM (active)
- Ki [7]: 63.1 µM (active)

SMILES: Nc1ccc(/N=N/c2ccccc2)cc1
- AC50 [8]: 50.1 µM (inconclusive)

SMILES: Cc1ccc(CN2CC(C(=O)Nc3ncc(C)s3)CC2=O)cc1 (stereo not given)
- IC50 [9]: 1.26 µM (active)

SMILES: CCc1cc(C(=O)OCC(=O)N2CCC(c3ccccc3)=N2)sc1C
- IC50 [10]: > 66.2 µM (inactive)
- IC50 [11]: > 49.8 µM (inactive)
- IC50 [12]: 2.45 µM (active)
- IC50 [13]: 3.47 µM (active)
- IC50 [14]: > 88.8 µM (inactive)
- IC50 [15]: > 50 µM (inactive)

SMILES: C=CCn1c(SCc2c(C(=O)OC)sc(N)c2C(=O)OC)nnc1-c1ccc(Br)cc1
- AC50 [16]: 0.233 µM (active)

SMILES: CCSCCO/C(O)=C1\C(C)=NC2=C(C(=O)CCC2)C1c1coc2ccccc2c1=O (stereo not given)
- IC50 [17]: > 73.5 µM (inactive)

SMILES: O=c1c2cc([N+](=O)[O-])ccc2sn1-c1ccccc1
- IC50 [18]: > 25 µM (inactive)
- IC50 [19]: 11.3 µM (active)
- IC50 [20]: 12.1 µM (inactive)
- IC50 [21]: > 49.7 µM (inactive)
- EC50 [22]: > 104 µM (inactive)

SMILES: Nn1c(SCC(=O)Nc2ccc3c(c2)OCCO3)nnc1-c1ccccn1
- AC50 [23]: 107 µM (active)

SMILES: O=C1CC(c2ccc(F)cc2)Cc2[nH]c3cc(Cl)ccc3c(=O)c21 (stereo not given)
- Ki [24]: 3.98 µM (active)
- Ki [25]: 3.98 µM (active)
- Ki [7]: 6.31 µM (active)

SMILES: COCCN(CCOC)c1nc(OC)cc(-c2c[nH]c3ncccc23)n1
- Ki [26]: 0.1 µM (active)
- Ki [27]: > 2.51 µM (inactive)
- Ki [28]: > 2.51 µM (inactive)

SMILES: Cc1c(C(=O)OC(C)C(=O)N(C)Cc2ccccc2)oc2ccccc12 (stereo not given)
- IC50 [10]: > 66.2 µM (inactive)
- IC50 [11]: 43.3 µM (inactive)
- IC50 [12]: 0.717 µM (active)
- IC50 [13]: 6.49 µM (active)
- IC50 [14]: 9.6 µM (active)
- IC50 [15]: 5.52 µM (active)

SMILES: O=C1CC(=C2c3ccccc3-c3ccccc32)C(=O)N1CCN1CCN(c2cccc(Cl)c2)CC1
- IC50 [29]: 13.5 µM (active)
- IC50 [30]: 26.6 µM (active)

SMILES: O=C(CN1CCCc2ccccc21)NCCc1ccc(Cl)cc1
- IC50 [31]: 8.54 µM (active)

SMILES: COC(=O)N1C(=O)[C@@](c2ccc(OC)cc2)(C(C)C)N1C(=O)OC
- IC50 [32]: 3.22 µM (active)
- IC50 [33]: 2.4 µM (active)

Reference: ChEMBL document CHEMBL1201862, “PubChem BioAssay data set” (2004)
